Columns and labels:
hNav1.2 = target: T1, hNav1.2 (Homo sapiens, UniProt Q99250); assay: Subtype selectivity, patch clamp; format: cell-based; settings: 1 μM
T1 construct: expressed in transfected cells; host or cells: HEK293T
Protocol: (§1) VGSC inhibitors required credible subtype selectivity to void side effects caused by binding to nontarget subtypes. At a concentration of 1 μM, the inhibitory rates of WN2-R on hNav1.2, hNav1.3, hNav1.4, hNav1.5, mNav1.6, and hNav1.8 were determined (n = 3 to 6, Fig. 7A). […] To further evaluate the drug safety profile, high-dose acute toxicity experiments were conducted. Mice were administered a high dose of 30 mg/kg WN2-R through i.p. administration. The rotarod test, forced-swim test, and open field test were used to explore the effect of high-dose WN2-R on the motor ability of mice (n = 4). The rotarod test evaluated the drug's effect on motor coordination, the forced-swim test examined its impact on the overall motor system, and the open field test assessed the drug's influence on the motor and nervous systems.
(§2) Human embryonic kidney (HEK) 293T (ATCC CRL-3216) and ND7/23 cells (National Collection of Authenticated Cell Cultures SCSP-5026) were cultured under standard conditions (5% CO2, 37 °C) in Dulbecco’s modified Eagle’s medium (DMEM) containing 10% fetal bovine serum and 1% penicillin-streptomycin solution(all from Gibco, Thermo Fisher Scientific, Waltham, MA, USA). When the cells reached 70% to 90% confluence, human Nav1.2 (hNav1.2), human Nav1.3 (hNav1.3), human Nav1.4 (hNav1.4), human Nav1.5 (hNav1.5), and mouse Nav1.6 (mNav1.6) channel plasmids were cotransfected with enhanced green fluorescent protein (eGFP) into HEK293T cells. Additionally, plasmids expressing β1 and β2 subunits tagged with eGFP were cotransfected with the human Nav1.7 (hNav1.7) channel into HEK293T cells. Human Nav1.8 (hNav1.8) was transiently transfected into ND7/23 cells, along with eGFP, using Lipofectamine 2000 (Invitrogen), adhering strictly to the manufacturer’s protocol. For manual patch-clamp experiments, the cells were plated onto glass coverslips and used within 20 to 48 h of transfection.
(§3) Whole-cell patch-clamp recordings were conducted at 25 ± 2 °C, utilizing an EPC 10USB patch-clamp amplifier (HEKA Elektronik, Lambrecht, Germany). Pipettes, with access resistance between 2.0 and 3.0 MΩ, were pulled from borosilicate glass capillary tubes using a 2-step vertical microelectrode puller (PC-10, Narishige Group, Tokyo, Japan). Voltage-clamp recordings were obtained with PatchMaster software v2 × 73 (HEKA Elektronik) 5 min after establishing whole-cell configuration, sampled at 20 kHz, and filtered at 5 kHz. To minimize voltage errors, 80% series resistance compensation was applied. Pipettes were filled with 140 mM CsF, 10 mM NaCl, 1 mM EGTA, and 10 mM HEPES (pH=7.4, adjusted with CsOH). The external solution contained 140 mM NaCl, 2 mM CaCl2, 1 mM MgCl2, 5 mM KCl, 10 mM HEPES, and 10 mM glucose (pH=7.4, adjusted with NaOH). IC50 values were determined in HEK293T or ND7/23 cell lines by voltage clamping at −80 mV, followed by stepping to the V1/2 of inactivation for 8 s to facilitate compound binding.

hNav1.3 = target: T2, hNav1.3 (Homo sapiens, UniProt Q9NY46); assay: Subtype selectivity, patch clamp; format: cell-based; settings: 1 μM
T2 construct: expressed in transfected cells; host or cells: HEK293T
Protocol: as §1, §2, §3

hNav1.4 = target: T3, hNav1.4 (Homo sapiens, UniProt P35499); assay: Subtype selectivity, patch clamp; format: cell-based; settings: read-out: Inhibitory rate on Nav1.4
T3 construct: expressed in transfected cells; host or cells: HEK293T
Protocol: as §1, §2, §3

hNav1.5 = target: T4, hNav1.5 (Homo sapiens, UniProt Q14524); assay: Subtype selectivity, patch clamp; format: cell-based; settings: read-out: Inhibitory rate on Nav1.5
T4 construct: expressed in transfected cells; host or cells: HEK293T
Protocol: as §1, §2, §3

mNav1.6 = target: T5, mNav1.6 (Mus musculus, UniProt Q9WTU3); assay: Subtype selectivity, patch clamp; format: cell-based; settings: 1 μM
T5 construct: expressed in transfected cells; host or cells: HEK293T
T5 sequence (Q9WTU3 whole entry): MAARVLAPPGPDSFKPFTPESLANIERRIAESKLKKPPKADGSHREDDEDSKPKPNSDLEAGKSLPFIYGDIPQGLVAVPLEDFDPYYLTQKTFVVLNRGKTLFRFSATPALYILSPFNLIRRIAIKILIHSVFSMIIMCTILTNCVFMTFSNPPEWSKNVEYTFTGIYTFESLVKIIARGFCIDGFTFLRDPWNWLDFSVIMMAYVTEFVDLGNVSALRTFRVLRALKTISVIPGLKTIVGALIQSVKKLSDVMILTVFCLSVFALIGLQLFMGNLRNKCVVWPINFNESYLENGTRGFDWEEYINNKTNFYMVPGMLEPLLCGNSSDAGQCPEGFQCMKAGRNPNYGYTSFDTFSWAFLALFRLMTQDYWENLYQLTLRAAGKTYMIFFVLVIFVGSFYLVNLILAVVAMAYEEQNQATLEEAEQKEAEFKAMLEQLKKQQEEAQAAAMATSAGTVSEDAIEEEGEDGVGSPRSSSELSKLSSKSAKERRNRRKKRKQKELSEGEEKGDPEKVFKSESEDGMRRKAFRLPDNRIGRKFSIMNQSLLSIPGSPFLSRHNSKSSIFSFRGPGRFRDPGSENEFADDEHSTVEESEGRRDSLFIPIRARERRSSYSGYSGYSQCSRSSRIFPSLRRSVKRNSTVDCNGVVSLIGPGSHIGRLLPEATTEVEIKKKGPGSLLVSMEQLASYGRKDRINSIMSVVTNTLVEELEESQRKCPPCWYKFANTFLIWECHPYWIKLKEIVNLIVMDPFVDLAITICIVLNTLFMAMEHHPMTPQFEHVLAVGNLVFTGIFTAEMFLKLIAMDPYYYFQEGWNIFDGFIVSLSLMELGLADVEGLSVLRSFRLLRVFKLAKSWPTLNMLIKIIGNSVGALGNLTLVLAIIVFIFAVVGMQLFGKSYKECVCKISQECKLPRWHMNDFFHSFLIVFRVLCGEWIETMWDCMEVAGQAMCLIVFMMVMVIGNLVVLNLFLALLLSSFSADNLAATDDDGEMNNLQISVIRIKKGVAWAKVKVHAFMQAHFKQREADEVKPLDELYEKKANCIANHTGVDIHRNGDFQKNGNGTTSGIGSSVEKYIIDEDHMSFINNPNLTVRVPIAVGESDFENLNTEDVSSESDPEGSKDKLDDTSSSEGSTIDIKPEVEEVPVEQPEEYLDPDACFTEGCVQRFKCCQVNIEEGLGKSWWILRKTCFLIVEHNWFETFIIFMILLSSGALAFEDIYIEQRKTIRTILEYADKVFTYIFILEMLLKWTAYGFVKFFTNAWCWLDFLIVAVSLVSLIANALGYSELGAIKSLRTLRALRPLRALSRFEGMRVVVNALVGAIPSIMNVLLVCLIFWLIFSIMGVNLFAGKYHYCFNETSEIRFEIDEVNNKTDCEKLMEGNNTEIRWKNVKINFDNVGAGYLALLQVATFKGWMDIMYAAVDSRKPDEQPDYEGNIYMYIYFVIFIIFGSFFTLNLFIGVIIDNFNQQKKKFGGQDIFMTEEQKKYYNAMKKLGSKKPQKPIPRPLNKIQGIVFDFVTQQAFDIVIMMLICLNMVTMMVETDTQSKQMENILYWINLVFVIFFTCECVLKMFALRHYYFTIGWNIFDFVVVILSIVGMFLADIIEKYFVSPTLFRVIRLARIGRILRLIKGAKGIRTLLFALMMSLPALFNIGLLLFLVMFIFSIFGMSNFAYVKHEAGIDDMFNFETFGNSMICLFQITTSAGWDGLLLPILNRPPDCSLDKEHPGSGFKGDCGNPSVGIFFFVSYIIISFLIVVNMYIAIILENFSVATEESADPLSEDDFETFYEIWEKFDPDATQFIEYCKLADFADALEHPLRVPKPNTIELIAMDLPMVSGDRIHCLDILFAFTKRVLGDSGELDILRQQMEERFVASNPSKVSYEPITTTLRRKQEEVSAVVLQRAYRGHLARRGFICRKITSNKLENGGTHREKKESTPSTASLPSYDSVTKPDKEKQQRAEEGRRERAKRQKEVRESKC
Protocol: as §1, §2, §3

[1] = test system: SNI neuropathic pain model in mice; assay: Spared nerve injury (SNI) neuropathic pain model; format: in vivo, C57 mice
Source text: Peripheral nerve injury models were developed to investigate the mechanisms of neuropathic pain. One such model, the spared nerve injury (SNI) neuropathic pain model in mice, involved ligating and transecting the […] and tibial nerves within the […] nerve, while leaving the sural nerve untouched. […] To evaluate the neuroanalgesic potential of WN2-R in this model, both i.g. and i.m. routes were used to evaluate the neuroanalgesic effect of WN2-R in this model (n = 5). […] In contrast, PF-05089771 reached its peak at 1 h (PWTs = 1.08 g) but then rapidly lost its efficacy, resembling the saline control group after 1 h. Throughout the experiment, the PWTs of the WN2-R group remained consistently higher than that of the PF-05089771 group (Fig. 6F and G). […] Subsequently, the efficacy of both drugs gradually declined, converging with the saline group after 3 h. Throughout the entire dosing period, the PWTs of the WN2-R group were slightly higher than that of the PF-05089771 group (Fig. 6M and N). […] To elucidate the time course of pain hypersensitivity induced by SNI, the behavioral responses (mechanical testing with von Frey fibers) were measured before surgery (baseline value) in C57 mice (5 female). Then, the mice underwent SNI surgery, which involved ligation and axotomy of the common peroneal and tibial nerves, while sparing the sural nerve. Sham-operated mice served as controls, with their nerves remaining intact. To confirm the presence of pain hypersensitivity in the SNI group, behavioral testing was carried out 14 days after SNI in each animal. Post drugs/saline administration, PWTs were measured at 0, 0.5, 1, 1.5, 2, 2.5, and 3 h for the i.g. route, and at 0, 0.5, 1, 2, 3, and 4 h for the i.m. route.

T1 sequence (Q99250 whole entry): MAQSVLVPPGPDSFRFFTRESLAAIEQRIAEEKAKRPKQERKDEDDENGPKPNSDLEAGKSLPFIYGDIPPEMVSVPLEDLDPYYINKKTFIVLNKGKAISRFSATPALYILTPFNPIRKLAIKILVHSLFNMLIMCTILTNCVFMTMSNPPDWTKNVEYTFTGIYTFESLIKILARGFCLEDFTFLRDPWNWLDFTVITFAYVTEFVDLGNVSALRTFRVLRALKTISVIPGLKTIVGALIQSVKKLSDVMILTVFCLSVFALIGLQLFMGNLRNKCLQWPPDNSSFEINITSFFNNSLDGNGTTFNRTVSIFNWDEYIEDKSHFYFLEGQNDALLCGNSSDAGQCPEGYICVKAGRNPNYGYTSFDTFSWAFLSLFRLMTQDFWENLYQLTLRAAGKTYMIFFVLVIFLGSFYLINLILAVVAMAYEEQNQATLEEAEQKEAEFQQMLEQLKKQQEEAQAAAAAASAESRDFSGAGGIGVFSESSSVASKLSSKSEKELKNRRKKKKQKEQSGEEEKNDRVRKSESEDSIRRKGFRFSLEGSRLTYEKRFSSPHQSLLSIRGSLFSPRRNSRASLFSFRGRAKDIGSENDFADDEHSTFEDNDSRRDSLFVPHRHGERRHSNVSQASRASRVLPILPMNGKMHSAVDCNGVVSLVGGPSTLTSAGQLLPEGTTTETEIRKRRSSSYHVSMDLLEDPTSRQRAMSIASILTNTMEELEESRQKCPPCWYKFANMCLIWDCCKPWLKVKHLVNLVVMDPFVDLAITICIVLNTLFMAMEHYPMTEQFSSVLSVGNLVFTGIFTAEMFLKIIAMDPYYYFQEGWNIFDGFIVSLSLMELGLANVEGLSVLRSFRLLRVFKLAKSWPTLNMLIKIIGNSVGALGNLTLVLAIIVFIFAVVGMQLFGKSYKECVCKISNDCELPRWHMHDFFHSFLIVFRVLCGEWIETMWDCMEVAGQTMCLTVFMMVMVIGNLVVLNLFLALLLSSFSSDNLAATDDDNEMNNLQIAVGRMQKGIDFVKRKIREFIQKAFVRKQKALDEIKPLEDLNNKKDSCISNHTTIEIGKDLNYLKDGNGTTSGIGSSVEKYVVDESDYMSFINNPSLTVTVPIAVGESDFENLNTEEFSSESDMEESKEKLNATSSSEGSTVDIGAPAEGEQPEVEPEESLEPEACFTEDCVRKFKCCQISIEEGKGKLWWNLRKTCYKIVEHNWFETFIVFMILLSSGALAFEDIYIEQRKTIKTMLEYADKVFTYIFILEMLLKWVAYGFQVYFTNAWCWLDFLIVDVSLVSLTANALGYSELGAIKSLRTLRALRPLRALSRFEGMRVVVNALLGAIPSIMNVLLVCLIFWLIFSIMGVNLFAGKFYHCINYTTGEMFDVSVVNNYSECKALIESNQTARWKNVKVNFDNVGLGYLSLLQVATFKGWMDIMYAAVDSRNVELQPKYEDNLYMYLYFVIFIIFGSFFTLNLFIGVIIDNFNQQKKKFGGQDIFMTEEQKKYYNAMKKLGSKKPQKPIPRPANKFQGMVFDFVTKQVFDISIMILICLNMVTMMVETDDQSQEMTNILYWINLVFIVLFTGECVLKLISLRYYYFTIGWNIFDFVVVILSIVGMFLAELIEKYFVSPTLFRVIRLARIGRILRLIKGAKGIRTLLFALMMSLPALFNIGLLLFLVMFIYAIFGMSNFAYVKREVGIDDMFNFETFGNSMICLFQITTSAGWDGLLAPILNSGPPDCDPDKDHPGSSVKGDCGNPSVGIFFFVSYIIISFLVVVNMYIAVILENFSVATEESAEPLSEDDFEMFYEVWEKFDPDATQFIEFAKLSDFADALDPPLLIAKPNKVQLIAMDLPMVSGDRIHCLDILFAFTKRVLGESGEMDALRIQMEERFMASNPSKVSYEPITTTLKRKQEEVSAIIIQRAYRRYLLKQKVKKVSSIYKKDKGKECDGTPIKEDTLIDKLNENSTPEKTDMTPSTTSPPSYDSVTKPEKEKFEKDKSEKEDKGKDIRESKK

## Cc1ccc(Cn2cc([C@H](CC(=O)NCCN(C)C)c3ccc(F)cc3)c3ccccc32)cc1 [WN2-R]
hNav1.2
  Inhibitory rate on hNav1.2: much lower than that on Nav1.7
hNav1.3
  Inhibitory rate on hNav1.3: much lower than that on Nav1.7
hNav1.4
  inhibition at 1 µM: 16.3%
hNav1.5
  inhibition at 1 µM: 19.1%
mNav1.6
  Inhibitory rate on mNav1.6: much lower than that on Nav1.7
[1]; i.g.
  Duration of significant efficacy: at least 2 h
[1]; i.g., 1 h post drug application, 14 days after SNI
  Paw withdrawal threshold (PWTs): 1.72 g
[1]; i.m.
  Time after which efficacy converged with the saline group: 3 h
  Time of peak efficacy: 1 h
[1]; i.m., 1 h post drug application, 14 days after SNI
  Paw withdrawal threshold (PWTs) at peak efficacy: 1.39 g
